Results as given in patent publication US8969373B2, “HCV protease inhibitors” (Shanghai Tangrun Pharmaceuticals Co., Ltd., priority 2011, dated 2015).
Read-outs that look alike come from different tables or passages of the source.

Assays:
[1] = test system: HCV replicon (pSGR-399LM) in Huh7 cells; test: Inhibitory activity in the HCV replicon system (Renilla luciferase); type: cell-based; settings: Hepatitis C virus, Huh-7, pSGR-399LM replicon Huh7 cells, 72 hr
Experimental: The Inhibitory Activity of Compounds in the HCV Replicon System
HCV replicon cell-line: The Huh7 cells were transfected with pSGR-399LM replicon DNA and cultured in the DMEM containing 10% FBS and 0.5 mg/mL G418. The cells were split at 1:3 to 1:5 every 3-4 days. The transfected cells were seeded in 96-well plates and cultured at 37° C., 5% CO2 for 24 hr.
Treatment with samples: To the HCV replicon Huh7 cells-line were added different concentration of the samples (i.e. compound Ik, wherein k=1, 2, 3 . . . 42), the each concentration for duplicate, and set no sample control wells. The concentration started at 400 nM, with quarter dilution to form five different concentrations of samples, that is 400 nM, 100 nM, 25 nM, 6.25 nM and 1.56 nM. The samples were added separately, and continued to incubated for 72 hr.
Fluorescence detection: After 72 hr treatment with sample, the cells were lysed and added with Renilla luciferase substrate to detect luminescent signal. The relative luminescent unit (RLU) in the luminometer was read out and used to calculate the inhibition rate of HCV.

[2] = test system: HCV (J399EM virus) in Huh7.5.1 cells; test: Inhibition of HCV replication in HCV infected human hepatocellular carcinoma cells (Huh7.5.1), HCV-EGFP fluorescence; type: cell-based; settings: Hepatitis C virus, Huh-7.5.1, 72 h, read-out: HCV infected human hepatocellular carcinoma cells in vitro EC50(nM)
Experimental: In Vitro Inhibitory Activity of Compounds in HCV Replication in HCV Infected Human Hepatocellular Carcinoma Cells (Huh7.5.1)
The preparation of Huh7.5.1cells: Huh 7.5.1 cells were seeded at a 96-well plate with 37 and 5% CO2 for 24 hours incubation.
Virus infection: Using the J399EM virus supernatants (moi≈0.1) to infect Huh7.5.1cells. At the same time, the no virus infected cell will be set up as the control. After 8 hours virus infection, the virus will be washed out with PBS.
Drug treatment: The different doses of samples (i.e. the compound Ik, wherein k=1, 2, 3, . . . 42) were added in J399EM infected Huh7.5.1 cells, the each dose for duplicate. At the same time the no sample added in wells will be set up as the control. The test dose of sample is starting from 25 nM or 400 nM, with quarter dilution, 5 doses of sample will be added in the test wells, respectively, then continued for 72 hours incubation.
HCV-EGFP fluorescence detection: After samples treatment for 72 hours, the autofluorescence of HCV-EGFP were measured by the luminometer with excitation of 488 nm, and emission of 516 nm. The related fluorescence unit (RFU) of samples will be read out and used for calculating the inhibitory rates of compounds in HCV replication.

[3] = Pharmacokinetic evaluation in SD rats after oral administration; type: in vivo, Sprague-Dawley (SD) rats; settings: oral gavage, 10 mg/kg; for bioavailability: read-out: F (absolute bioavailability)
Experimental: Pharmacokinetic Evaluation of the Compounds of this Invention
Twenty healthy male Sprague-Dawley (SD) rats with body weight of 200-220 g were divided into 5 groups randomly and each group contains 4 rats. Before the experiment, rats were fasted for 12 h with free access to water. The compound Ik (wherein k=2, 5, 18, 34 or 38) of this invention was administered by oral gavage at a dose level of 10 mg/kg. The compounds were prepared with 0.5% CMC-Na containing 1% Tween 80. The dose volume was 10 mL/kg. The rats were afforded unlimited access to food after 2 h of dosing 0.3 mL of blood samples were collected at 0.25 h, 0.5 h, 1.0 h, 2.0 h, 3.0 h, 5.0 h, 7.0 h, 9.0 h, and 24.0 h, respectively, from postocular venous plexes of the rat. The blood samples were placed in heparin-containing tubes and immediately centrifuged at 11000 rpm for 5 min. Plasma was separated and refrigerated at −20° C. until analysis. LC-MS/MS methods were used to quantify plasma concentrations of the compound Ik.

[4] = male, Sprague-Dawley, rat, plasma
[5] = male, Sprague-Dawley, rat, plasma, po, read-out: Cmax
[6] = male, Sprague-Dawley, rat, plasma, po

Question: Which results are given for `COc1ccc2oc3c4ccccc4c(O[C@@H]4C[C@H]5C(=O)N[C@]6(C(=O)NS(=O)(=O)C7CC7)C[C@H]6/C=C\CCCCC[C@H](NC(=O)OC(C)(C)C)C(=O)N5C4)nc3c2c1` [Compound 2, tert-butyl(2R,6S,13aS,14aR,16aS,Z)-14a-(cyclopropylsulfonylcarbamoyl)-2-(8-methoxybenzofuro[3,2-c]isoquinolin-5-yloxy)-5,16-dioxo-1,2,3,5,6,7,8,9,10,11,13a,14,14a,15,16,16a-hexadecahydrocyclopropa[e]pyrrolo[1,2-a][1,4]diazacyclopentadecin-6-yl carbamate]?
Answer: EC50 [1]: < 100 nM; EC50 [2]: < 100 nM; AUC(0-inf) [3, 4]: 1780 ± 53.7 ng·h/mL; AUC(0-t) [3, 4]: 158 ± 49.8 ng·h/mL; Tmax [3, 4]: 24 ± 6 min; half-life [3, 4]: 186 ± 78 min; Cmax [3, 5]: 49.7 ± 11 ng/mL; bioavailability [3, 6]: 1.8%

Question: With `CC(C)(C)OC(=O)N[C@H]1CCCCC/C=C\[C@@H]2C[C@@]2(C(=O)NS(=O)(=O)C2CC2)NC(=O)[C@@H]2C[C@@H](Oc3nc4c5cc(Cl)ccc5oc4c4ccccc34)CN2C1=O` [Compound 5] as the compound, how does the EC50 [1] read?
Answer: The EC50 was < 100 nM.

Question: And the EC50 [2]?
Answer: Its EC50 is < 100 nM.

Question: What about the AUC(0-inf) [3, 4] of the same compound?
Answer: Its AUC(0-inf) is 3030 ± 1700 ng·h/mL.

Question: And the AUC(0-t) [3, 4]?
Answer: Its AUC(0-t) is 2880 ± 1720 ng·h/mL.

Question: What about the Tmax [3, 4] of the same compound?
Answer: Its Tmax is 75 ± 30 min.

Question: What about the half-life [3, 4] of the same compound?
Answer: The half-life was 209 ± 65.4 min.

Question: And the Cmax [3, 5]?
Answer: Its Cmax is 560 ± 139 ng/mL.

Question: What about the bioavailability [3, 6] of the same compound?
Answer: Its bioavailability is 17.1%.

Question: Which EC50 [1] does the source give for `COc1ccc2c(c1)c(O[C@@H]1C[C@H]3C(=O)N[C@]4(C(=O)NS(=O)(=O)C5CC5)C[C@H]4/C=C\CCCCC[C@H](NC(=O)OC(C)(C)C)C(=O)N3C1)nc1c3ccccc3oc21` [Compound 18] here?
Answer: Its EC50 is < 100 nM.

Question: What about the EC50 [2] of the same compound?
Answer: The EC50 was < 100 nM.

Question: What about the AUC(0-inf) [3, 4] of the same compound?
Answer: Its AUC(0-inf) is 3270 ± 303 ng·h/mL.

Question: And the AUC(0-t) [3, 4]?
Answer: The AUC(0-t) was 3220 ± 336 ng·h/mL.

Question: What about the Tmax [3, 4] of the same compound?
Answer: Its Tmax is 102 ± 36 min.

Question: What about the half-life [3, 4] of the same compound?
Answer: The half-life was 228 ± 60 min.

Question: And the Cmax [3, 5]?
Answer: The Cmax was 623 ± 60.7 ng/mL.

Question: And the bioavailability [3, 6]?
Answer: The bioavailability was ~36.1%.

Question: And the Cmax ([3]; listed as I18, 10 mg/kg)?
Answer: The Cmax was 623.3 ± 60.7 ng/mL.

Question: With `C=C[C@@H]1C[C@]1(NC(=O)[C@@H]1C[C@@H](Oc2nc3c4cc(OC)ccc4oc3c3ccc(Cl)cc23)CN1C(=O)[C@@H](NC(=O)OC(C)(C)C)C(C)(C)C)C(=O)NS(=O)(=O)C1CC1` [Compound 32] as the compound, how does the EC50 [1] read?
Answer: Its EC50 is < 100 nM.

Question: What about the EC50 [2] of the same compound?
Answer: The EC50 was 100 to 1000 nM.

Question: With `C=C[C@@H]1C[C@]1(NC(=O)[C@@H]1C[C@@H](Oc2nc3c4cc(Cl)ccc4oc3c3ccc(Cl)cc23)CN1C(=O)[C@@H](NC(=O)OC(C)(C)C)C(C)(C)C)C(=O)NS(=O)(=O)C1CC1` [Compound 33] as the compound, how does the EC50 [1] read?
Answer: Its EC50 is 100 to 1000 nM.

Question: What about the EC50 [2] of the same compound?
Answer: The EC50 was 100 to 1000 nM.

Question: Which results are given for `C=C[C@@H]1C[C@]1(NC(=O)[C@@H]1C[C@@H](Oc2cc(-c3csc(NC(=O)C(C)C)n3)nc3c2oc2ccc(OC)c(Cl)c23)CN1C(=O)[C@@H](NC(=O)OC(C)(C)C)C(C)(C)C)C(=O)NS(=O)(=O)C1CC1` [Compound 34]?
Answer: EC50 [1]: < 100 nM; EC50 [2]: < 100 nM; AUC(0-inf) [3, 4]: 11 ± 1.1 ng·h/mL; AUC(0-t) [3, 4]: 9.6 ± 0.9 ng·h/mL; Tmax [3, 4]: 24 ± 12 min; half-life [3, 4]: 30 ± 18 min; Cmax [3, 5]: 11.4 ± 4.3 ng/mL; bioavailability [3, 6]: 1.6%

Question: With `C=C[C@@H]1C[C@]1(NC(=O)[C@@H]1C[C@@H](Oc2cc(-c3csc(NC(=O)C(C)C)n3)nc3c2oc2ccc(OC)c(Br)c23)CN1C(=O)[C@@H](NC(=O)OC(C)(C)C)C(C)(C)C)C(=O)NS(=O)(=O)C1CC1` [Compound 35] as the compound, how does the EC50 [1] read?
Answer: Its EC50 is < 100 nM.

Question: And the EC50 [2]?
Answer: The EC50 was < 100 nM.

Question: Which EC50 [1] does the source give for `O=C1N[C@]2(C(=O)NS(=O)(=O)C3CC3)C[C@H]2/C=C\CCCCC[C@H](CC(=O)N2CCCCC2)C(=O)N2C[C@H](Oc3cc(-c4ccccc4)nc4c3oc3ccccc34)C[C@@H]12` [Compound 36] here?
Answer: Its EC50 is < 100 nM.

Question: And the EC50 [2]?
Answer: Its EC50 is 100 to 1000 nM.

Question: With `C=C[C@@H]1C[C@]1(NC(=O)[C@@H]1C[C@@H](Oc2cc(-c3ccccc3)nc3c2oc2ccccc23)CN1C(=O)[C@@H](CC(=O)N1CCCCC1)C(C)(C)C)C(=O)NS(=O)(=O)C1CC1` [Compound 37] as the compound, how does the EC50 [1] read?
Answer: The EC50 was 100 to 1000 nM.

Question: And the EC50 [2]?
Answer: Its EC50 is 100 to 1000 nM.

Question: Which results are given for `C=C[C@@H]1C[C@]1(NC(=O)[C@@H]1C[C@@H](Oc2cc(-c3ccccc3)nc3c2oc2ccccc23)CN1C(=O)[C@@H](NC(=O)OC(C)(C)C)C(C)(C)C)C(=O)NS(=O)(=O)C1CC1` [Compound 38]?
Answer: EC50 [1]: < 100 nM; EC50 [2]: < 100 nM; AUC(0-inf) [3, 4]: 243 ± 81 ng·h/mL; AUC(0-t) [3, 4]: 239 ± 81 ng·h/mL; Tmax [3, 4]: 37.8 ± 15 min; half-life [3, 4]: 43.2 ± 18 min; Cmax [3, 5]: 150 ± 42 ng/mL; bioavailability [3, 6]: 8.7%

Question: With `C=C[C@@H]1C[C@]1(NC(=O)[C@@H]1C[C@@H](Oc2cc(-c3cnc(C(C)(C)O)s3)nc3c2oc2ccc(OC)c(Cl)c23)CN1C(=O)[C@@H](NC(=O)OC(C)(C)C)C(C)(C)C)C(=O)NS(=O)(=O)C1CC1` [Compound 39] as the compound, how does the EC50 [1] read?
Answer: Its EC50 is < 100 nM.

Question: And the EC50 [2]?
Answer: The EC50 was < 100 nM.

Question: With `C=C[C@@H]1C[C@]1(NC(=O)[C@@H]1C[C@@H](Oc2cc(-c3cnc(C(C)(C)O)s3)nc3c2oc2ccc(OC)c(Br)c23)CN1C(=O)[C@@H](NC(=O)OC(C)(C)C)C(C)(C)C)C(=O)NS(=O)(=O)C1CC1` [Compound 40] as the compound, how does the EC50 [1] read?
Answer: The EC50 was < 100 nM.

Question: What about the EC50 [2] of the same compound?
Answer: The EC50 was < 100 nM.
